Assay results as given in patent US7632833B2, “Mitotic kinesin inhibitors” (Merck & Co., Inc., priority 2004, dated 2009).
Read-outs that look alike come from different tables or passages of the source.

Biological target: T1, human poly-histidine tagged KSP motor domain (KSP(367H)) (Homo sapiens, UniProt P52732)
T1 construct: were used to amplify the motor domain and the neck linker region; made in house; host or cells: E. coli BL21 (DE3), vector pRSETa
T1 sequence (P52732 18-359 limits assumed): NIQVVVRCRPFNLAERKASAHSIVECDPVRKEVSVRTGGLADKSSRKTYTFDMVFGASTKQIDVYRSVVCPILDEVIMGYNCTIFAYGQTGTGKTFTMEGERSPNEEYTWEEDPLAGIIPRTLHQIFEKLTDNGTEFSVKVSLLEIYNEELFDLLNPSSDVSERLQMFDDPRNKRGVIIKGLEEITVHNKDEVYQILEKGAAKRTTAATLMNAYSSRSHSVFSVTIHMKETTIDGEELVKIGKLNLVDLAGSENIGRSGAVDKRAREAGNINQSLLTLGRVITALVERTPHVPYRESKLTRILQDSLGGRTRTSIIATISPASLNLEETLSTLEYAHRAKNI
Experiment: Kinesin ATPase In Vitro Assay
Assay type: biochemical
Procedure: I. Kinesin ATPase In Vitro Assay
The N-terminal primer 5′-[…] (SEQ. ID. NO.: 1) and the C-terminal primer 5′-[…] […] (SEQ. ID. NO.: 2)
were used to amplify the motor domain and the neck linker region. The PCR products were digested with AseI and XhoI, ligated into the NdeI/XhoI digestion product of pRSETa (Invitrogen) and transformed into E. coli BL21 (DE3).
Cells were grown at 37° C. to an OD600 of 0.5. After cooling the culture to room temperature expression of KSP was induced with 100 μM IPTG and incubation was continued overnight. Cells were pelleted by centrifugation and washed once with ice-cold PBS. Pellets were flash-frozen and stored −80° C.
Protein Purification: Cell pellets were thawed on ice and resuspended in lysis buffer (50 mM K-HEPES, pH 8.0, 250 mM KCl, 0.1% Tween, 10 mM imidazole, 0.5 mM Mg-ATP, 1 mM PMSF, 2 mM benzimidine, 1× complete protease inhibitor cocktail (Roche)). Cell suspensions were incubated with 1 mg/ml lysozyme and 5 mM β-mercaptoethanol on ice for 10 minutes, followed by sonication (3×30 sec). All subsequent procedures were performed at 4° C. Lysates were centrifuged at 40,000×g for 40 minutes. Supernatants were diluted and loaded onto an SP Sepharose column (Pharmacia, 5 ml cartridge) in buffer A (50 mM K-HEPES, pH 6.8, 1 mM MgCl2, 1 mM EGTA, 10 μM Mg-ATP, 1 mM DTT) and eluted with a 0 to 750 mM KCl gradient in buffer A. Fractions containing KSP were pooled and incubated with Ni-NTA resin (Qiagen) for one hour. The resin was washed three times with buffer B (Lysis buffer minus PMSF and protease inhibitor cocktail), followed by three 15-minute incubations and washes with buffer B. Finally, the resin was incubated and washed for 15 minutes three times with buffer C (same as buffer B except for pH 6.0) and poured into a column. KSP was eluted with elution buffer (identical to buffer B except for 150 mM KCl and 250 mM imidazole). KSP-containing fractions were pooled, made 10% in sucrose, and stored at −80° C.
Microtubules are prepared from tubulin isolated from bovine brain. Purified tubulin (>97% MAP-free) at 1 mg/ml is polymerized at 37° C. in the presence of 10 μM paclitaxel, 1 mM DTT, 1 mM GTP in BRB80 buffer (80 mM K-PIPES, 1 mM EGTA, 1 mM MgCl2 at pH 6.8). The resulting microtubules are separated from non-polymerized tubulin by ultracentrifugation and removal of the supernatant. The pellet, containing the microtubules, is gently resuspended in 10 μM paclitaxel, 1 mM DTT, 50 μg/ml ampicillin, and 5 μg/ml chloramphenicol in BRB80.
The kinesin motor domain is incubated with microtubules, 1 mM ATP (1:1 MgCl2: Na-ATP), and compound at 23° C. in buffer containing 80 mM K-HEPES (pH 7.0), […], 1 mM DTT, 1 mM MgCl2, and 50 mM KCl. The reaction is terminated by a 2-10 fold dilution with a final buffer composition of 80 mM HEPES and 50 mM EDTA. […] The reaction is incubated for 10 minutes at 23° C., and the absorbance of the phospho-molybdate complex is measured at 540 nm.

[1] = (3R,4R) enantiomeric form tested, kinesin motor domain with microtubules, 1 mM ATP, 23° C., free phosphate by quinaldine red/ammonium molybdate, read-out: IC50

Row | IC50 [1] [µM] | IC50 [µM] | SMILES
1 | ≤ 30 |  | COC(=O)C(=O)N1CCN(CCC[C@]2(c3ccccc3)C(C(C)=O)=NN3c4cc(F)ccc4OC[C@H]32)CC1 [Compound 4-31, methyl (4-{3-[(3R,4R)-2-acetyl-8-fluoro-3-phenyl-3a,4-dihydro-3H-pyrazolo[5,1-c][1,4]benzoxazin-3-yl]propyl}piperazin-1-yl)(oxo)acetate]
2 | ≤ 30 |  | CC(=O)NCCNCCC[C@]1(c2ccccc2)C(C(C)=O)=NN2c3cc(F)ccc3OC[C@H]21 [Compound 4-40, N-[2-({3-[(3R,4R)-2-acetyl-8-fluoro-3-phenyl-3a,4-dihydro-3H-pyrazolo[5,1-c][1,4]benzoxazin-3-yl]propyl}amino)ethyl]acetamide]
3 | ≤ 30 |  | CC(=O)C1=NN2c3cc(F)ccc3OC[C@H]2[C@@]1(CCCN1CCNC(=O)C1)c1ccccc1 [Compound 4-36, 4-{3-[(3R,4R)-2-acetyl-8-fluoro-3-phenyl-3a,4-dihydro-3H-pyrazolo[5,1-c][1,4]benzoxazin-3-yl]propyl}piperazin-2-one]
4 | ≤ 30 |  | CC(=O)C1=NN2c3cc(F)ccc3OC[C@H]2[C@@]1(CCCN1CCN(C(=O)c2ccno2)CC1)c1ccccc1 [Compound 4-34, 1-((3R,4R)-8-fluoro-3-{3-[4-(isoxazol-5-ylcarbonyl)piperazin-1-yl]propyl}-3-phenyl-3a,4-dihydro-3H-pyrazolo[5,1-c][1,4]benzoxazin-2-yl)ethanone]
5 | ≤ 30 |  | CC(=O)C1=NN2c3cc(F)ccc3OC[C@H]2[C@@]1(CCCN1CCN(C(=O)c2ccco2)CC1)c1ccccc1 [Compound 4-33, 1-((3R,4R)-8-fluoro-3-{3-[4-(2-furoyl)piperazin-1-yl]propyl}-3-phenyl-3a,4-dihydro-3H-pyrazolo[5,1-c][1,4]benzoxazin-2-yl)ethanone]
6 | ≤ 30 |  | CC(=O)C1=NN2c3cc(F)ccc3OC[C@H]2[C@@]1(CCCN1CCN(C(=O)N(C)C)CC1)c1ccccc1 [Compound 4-29, 4-{3-[(3R,4R)-2-acetyl-8-fluoro-3-phenyl-3a,4-dihydro-3H-pyrazolo[5,1-c][1,4]benzoxazin-3-yl]propyl}-N,N-dimethylpiperazine-1-carboxamide]
7 | ≤ 30 |  | CC(=O)C1=NN2c3cc(F)ccc3OC[C@H]2[C@@]1(CCCN1CCN(C(=O)C(C)(C)C)CC1)c1ccccc1 [Compound 4-30, 1-((3R,4R)-3-{3-[4-(2,2-dimethylpropanoyl)piperazin-1-yl]propyl}-8-fluoro-3-phenyl-3a,4-dihydro-3H-pyrazolo[5,1-c][1,4]benzoxazin-2-yl)ethanone]
8 |  | ≤ 30 | CC(=O)C1=NN2c3cc(F)ccc3OC[C@H]2[C@@]1(CCCN1CCN(C(C)=O)CC1)c1ccccc1 [Compound 5-10, 1-{(3R,4R)-3-[3-(4-acetylpiperazin-1-yl)propyl]-8-fluoro-3-phenyl-3a,4-dihydro-3H-pyrazolo[5,1-c][1,4]benzoxazin-2-yl}ethanone]
9 | ≤ 30 |  | CC(=O)C1=NN2c3cc(F)ccc3OC[C@H]2[C@@]1(CCCN1CCN(C)C(=O)C1)c1ccccc1 [Compound 4-37, 4-{3-[(3R,4R)-2-acetyl-8-fluoro-3-phenyl-3a,4-dihydro-3H-pyrazolo[5,1-c][1,4]benzoxazin-3-yl]propyl}-1-methylpiperazin-2-one]

The next lines start with the molecule.

Row | SMILES | IC50 [1] [µM] | IC50 [µM]
10 | CON(C)C(=O)C1=NN2c3cc(F)ccc3OC[C@H]2[C@@]1(CCCO)c1ccccc1 [Compound 4-11, (3R,4R) 8-fluoro-3-(3-hydroxypropyl)-N-methoxy-N-methyl-3-phenyl-3a,4-dihydro-3H-pyrazolo[5,1-c][1,4]benzoxazine-2-carboxamide] | ≤ 30 | 
11 | COCC(=O)N1CCN(CCC[C@]2(c3ccccc3)C(C(C)=O)=NN3c4cc(F)ccc4OC[C@H]32)CC1 [Compound 4-26, 1-((3R,4R)-8-fluoro-3-{3-[4-(methoxyacetyl)piperazin-1-yl]propyl}-3-phenyl-3a,4-dihydro-3H-pyrazolo[5,1-c][1,4]benzoxazin-2-yl)ethanone] | ≤ 30 | 
12 | CC(=O)C1=NN2c3cc(F)ccc3OC[C@H]2[C@@]1(CCCN1CCN(C(=O)OC(C)(C)C)CC1)c1ccccc1 [Compound 4-24, tert-butyl 4-{3-[(3R,4R)-2-acetyl-8-fluoro-3-phenyl-3a,4-dihydro-3H-pyrazolo[5,1-c][1,4]benzoxazin-3-yl]propyl}piperazine-1-carboxylate] | ≤ 30 | 
13 | CON(C)C(=O)C1=NN2c3cc(F)ccc3OC[C@H]2[C@H]1c1ccccc1 [Compound 1-7, (3R,4R)-8-Fluoro-N-methoxy-N-methyl-3-phenyl-3a,4-dihydro-3H-pyrazolo[5,1-c][1,4]benzoxazine-2-carboxamide] | ≤ 30 | 
14 | CC(=O)C1=NN2c3cc(F)ccc3OCC2C1(CCCN1CCNC(=O)CC1)c1ccccc1 [Compound 4-21, 1-{3-[(3R,4R)-2-acetyl-8-fluoro-3-phenyl-3a,4-dihydro-3H-pyrazolo[5,1-c][1,4]benzoxazin-3-yl]propyl}-1,4-diazepan-5-one] |  | ≤ 30
15 | CC(=O)C1=NN2c3cc(F)ccc3OCC2[C@@]1(CCCN1CC2C[C@@H]1CO2)c1ccccc1 (mixture of isomers) [Compound 4-15, (3R,4R) 1-{8-fluoro-3-[3-(2-oxa-5-azabicyclo[2.2.1]hept-5-yl)propyl]-3-phenyl-3a,4-dihydro-3H-pyrazolo[5,1-c][1,4]benzoxazin-2-yl}ethanone] | ≤ 30 | 
16 | CC(=O)C1=NN2c3cc(C)ccc3OCC2C1(CCCN(C)C)c1ccccc1 [Compound 4-18, (3R,4R) 1-{3-[3-(dimethylamino)propyl]-8-methyl-3-phenyl-3a,4-dihydro-3H-pyrazolo[5,1-c][1,4]benzoxazin-2-yl}ethanone] |  | ≤ 30
17 | CC(=O)C1=NN2c3cc(F)ccc3OCC2C1(CCCN1CCOCC1)c1ccccc1 [Compound 4-14, (3R,4R) 1-[8-fluoro-3-(3-morpholin-4-ylpropyl)-3-phenyl-3a,4-dihydro-3H-pyrazolo[5,1-c][1,4]benzoxazin-2-yl]ethanone] |  | ≤ 30
18 | CC(=O)C1=NN2c3cc(C)ccc3OCC2[C@@]1(CCCN1CC2C[C@@H]1CO2)c1ccccc1 (mixture of isomers) [Compound 4-20, (3R,4R) 1-{8-methyl-3-[3-(2-oxa-5-azabicyclo[2.2.1]hept-5-yl)propyl]-3-phenyl-3a,4-dihydro-3H-pyrazolo[5,1-c][1,4]benzoxazin-2-yl}ethanone] | ≤ 30 | 
19 | CC(=O)C1=NN2c3cc(F)ccc3OCC2C1(CCCN1CCNCC1)c1ccccc1 [Compound 4-23, (3R,4R) 1-[8-fluoro-3-phenyl-3-(3-piperazin-1-ylpropyl)-3a,4-dihydro-3H-pyrazolo[5,1-c][1,4]benzoxazin-2-yl]ethanone] |  | ≤ 30
20 | CC(=O)C1=NN2c3cc(F)ccc3OC[C@H]2[C@@]1(CCCO)c1ccccc1 [Compound 4-12, (3R,4R) 1-[8-fluoro-3-(3-hydroxypropyl)-3-phenyl-3a,4-dihydro-3H-pyrazolo[5,1-c][1,4]benzoxazin-2-yl]ethanone] |  | ≤ 30
21 | CC(=O)C1=NN2c3cc(F)ccc3OCC2C1(CCCN(C)C)c1ccccc1 [Compound 4-13, (3R,4R) 1-{3-[3-(dimethylamino)propyl]-8-fluoro-3-phenyl-3a,4-dihydro-3H-pyrazolo[5,1-c][1,4]benzoxazin-2-yl}ethanone] |  | ≤ 30
22 | CC(=O)C1=NN2c3cc(C)ccc3OCC2C1(CCCN1CCOCC1)c1ccccc1 [Compound 4-19, (3R,4R) 1-[8-methyl-3-(3-morpholin-4-ylpropyl)-3-phenyl-3a,4-dihydro-3H-pyrazolo[5,1-c][1,4]benzoxazin-2-yl]ethanone] |  | ≤ 30
